Measurements taken from the supplement of paper PMC10307832.

Assays:
Assay in all cases: relative viability (nuclei count vs DMSO), 5 days (fraction); higher = more cells survive
NCI-H1666 = tested on: NCI-H1666
Outline: (§1)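 Lung cancer cell lines, seeded in 1536-well plates, were treated the following day by pin tool with a single drug or with five library-drug doses (not always all listed) in √10 steps on top of a fixed anchor-drug dose. Cells were fixed and nuclei stained in one step after 5 days, and nuclei were counted. Relative viability is the nuclei count for treated wells divided by that for vehicle wells, reported as medians of duplicate plates.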

NCI-H2228 = tested on: NCI-H2228
Outline: as §1

SW 1573 = tested on: SW 1573
Outline: as §1

NCI-H520 = tested on: NCI-H520
Outline: as §1

LU99A = tested on: LU99A
Outline: as §1

LOU-NH91 = tested on: LOU-NH91
Outline: as §1

NCI-H838 = tested on: NCI-H838
Outline: as §1

LC-2-ad = tested on: LC-2-ad
Outline: as §1

NCI-H460 = tested on: NCI-H460
Outline: as §1

NCI-H1355 = tested on: NCI-H1355
Outline: as §1

NCI-H2347 = tested on: NCI-H2347
Outline: as §1

PC-3 [JPC-3] = tested on: PC-3 [JPC-3]
Outline: as §1

NCI-H1650 = tested on: NCI-H1650
Outline: as §1

A-427 = tested on: A-427
Outline: as §1

EKVX = tested on: EKVX
Outline: as §1

NCI-H1915 = tested on: NCI-H1915
Outline: as §1

RERF-LC-KJ = tested on: RERF-LC-KJ
Outline: as §1

NCI-H1993 = tested on: NCI-H1993
Outline: as §1

NCI-H1793 = tested on: NCI-H1793
Outline: as §1

NCI-H23 = tested on: NCI-H23
Outline: as §1

NCI-H650 = tested on: NCI-H650
Outline: as §1

BEN = tested on: BEN
Outline: as §1

LCLC-97TM1 = tested on: LCLC-97TM1
Outline: as §1

Cc1cnc(-c2cnc(NCCNc3ccc(C#N)cn3)nc2-c2ccc(Cl)cc2Cl)[nH]1 + Cc1cc(Nc2cc(N3CCN(C)CC3)nc(Sc3ccc(NC(=O)C4CC4)cc3)n2)n[nH]1 [Tozasertib] (partner 0.1 µM)
relative viability (NCI-H1666; first compound 0.08 µM): 0.63
relative viability (NCI-H1666; first compound 0.253 µM): 0.593
relative viability (NCI-H1666; first compound 0.8 µM): 0.623
relative viability (NCI-H1666; first compound 2.53 µM): 0.626
relative viability (NCI-H2228; first compound 0.08 µM): 0.283
relative viability (NCI-H2228; first compound 0.253 µM): 0.267
relative viability (NCI-H2228; first compound 0.8 µM): 0.297
relative viability (NCI-H2228; first compound 2.53 µM): 0.268
relative viability (SW 1573; first compound 0.08 µM): 0.177
relative viability (SW 1573; first compound 0.253 µM): 0.138
relative viability (SW 1573; first compound 0.8 µM): 0.302
relative viability (SW 1573; first compound 2.53 µM): 0.156
relative viability (NCI-H520; first compound 0.08 µM): 0.517
relative viability (NCI-H520; first compound 0.253 µM): 0.444
relative viability (NCI-H520; first compound 0.8 µM): 0.397
relative viability (NCI-H520; first compound 2.53 µM): 0.499
relative viability (LU99A; first compound 0.08 µM): 0.257
relative viability (LU99A; first compound 0.253 µM): 0.301
relative viability (LU99A; first compound 0.8 µM): 0.256
relative viability (LU99A; first compound 2.53 µM): 0.243
relative viability (LOU-NH91; first compound 0.08 µM): 0.648
relative viability (LOU-NH91; first compound 0.253 µM): 0.605
relative viability (LOU-NH91; first compound 0.8 µM): 0.656
relative viability (LOU-NH91; first compound 2.53 µM): 0.633
relative viability (NCI-H838; first compound 0.08 µM): 0.293
relative viability (NCI-H838; first compound 0.253 µM): 0.235
relative viability (NCI-H838; first compound 0.8 µM): 0.281
relative viability (NCI-H838; first compound 2.53 µM): 0.272
relative viability (LC-2-ad; first compound 0.08 µM): 0.439
relative viability (LC-2-ad; first compound 0.253 µM): 0.392
relative viability (LC-2-ad; first compound 2.53 µM): 0.477
relative viability (NCI-H460; first compound 0.08 µM): 0.48
relative viability (NCI-H460; first compound 0.253 µM): 0.152
relative viability (NCI-H460; first compound 0.8 µM): 0.101
relative viability (NCI-H460; first compound 2.53 µM): 0.137
relative viability (NCI-H1355; first compound 0.08 µM): 0.662
relative viability (NCI-H1355; first compound 0.253 µM): 0.474
relative viability (NCI-H1355; first compound 0.8 µM): 0.56
relative viability (NCI-H1355; first compound 2.53 µM): 0.374
relative viability (NCI-H2347; first compound 0.08 µM): 0.59
relative viability (NCI-H2347; first compound 0.253 µM): 0.466
relative viability (NCI-H2347; first compound 0.8 µM): 0.411
relative viability (NCI-H2347; first compound 2.53 µM): 0.481
relative viability (PC-3 [JPC-3]; first compound 0.08 µM): 0.872
relative viability (PC-3 [JPC-3]; first compound 0.253 µM): 0.849
relative viability (PC-3 [JPC-3]; first compound 0.8 µM): 0.819
relative viability (PC-3 [JPC-3]; first compound 2.53 µM): 0.719
relative viability (NCI-H1650; first compound 0.08 µM): 0.476
relative viability (NCI-H1650; first compound 0.253 µM): 0.43
relative viability (NCI-H1650; first compound 0.8 µM): 0.353
relative viability (NCI-H1650; first compound 2.53 µM): 0.229
relative viability (A-427; first compound 0.08 µM): 0.232
relative viability (A-427; first compound 0.253 µM): 0.194
relative viability (A-427; first compound 0.8 µM): 0.235
relative viability (A-427; first compound 2.53 µM): 0.186
relative viability (EKVX; first compound 0.08 µM): 0.408
relative viability (EKVX; first compound 0.253 µM): 0.357
relative viability (EKVX; first compound 0.8 µM): 0.347
relative viability (EKVX; first compound 2.53 µM): 0.335
relative viability (NCI-H1915; first compound 0.08 µM): 0.404
relative viability (NCI-H1915; first compound 0.253 µM): 0.322
relative viability (NCI-H1915; first compound 0.8 µM): 0.342
relative viability (NCI-H1915; first compound 2.53 µM): 0.374
relative viability (RERF-LC-KJ; first compound 0.08 µM): 0.544
relative viability (RERF-LC-KJ; first compound 0.253 µM): 0.436
relative viability (RERF-LC-KJ; first compound 0.8 µM): 0.367
relative viability (RERF-LC-KJ; first compound 2.53 µM): 0.382
relative viability (NCI-H1993; first compound 0.08 µM): 0.583
relative viability (NCI-H1993; first compound 0.253 µM): 0.558
relative viability (NCI-H1993; first compound 0.8 µM): 0.573
relative viability (NCI-H1993; first compound 2.53 µM): 0.538
relative viability (NCI-H1793; first compound 0.08 µM): 0.347
relative viability (NCI-H1793; first compound 0.253 µM): 0.276
relative viability (NCI-H1793; first compound 0.8 µM): 0.257
relative viability (NCI-H1793; first compound 2.53 µM): 0.182
relative viability (NCI-H23; first compound 0.08 µM): 0.383
relative viability (NCI-H23; first compound 0.253 µM): 0.26
relative viability (NCI-H23; first compound 0.8 µM): 0.298
relative viability (NCI-H23; first compound 2.53 µM): 0.259
relative viability (NCI-H650; first compound 0.08 µM): 0.726
relative viability (NCI-H650; first compound 0.253 µM): 0.746
relative viability (NCI-H650; first compound 0.8 µM): 0.675
relative viability (NCI-H650; first compound 2.53 µM): 0.734
relative viability (BEN; first compound 0.08 µM): 0.517
relative viability (BEN; first compound 0.253 µM): 0.609
relative viability (BEN; first compound 0.8 µM): 0.476
relative viability (BEN; first compound 2.53 µM): 0.52
relative viability (LCLC-97TM1; first compound 0.08 µM): 0.224
relative viability (LCLC-97TM1; first compound 0.8 µM): 0.171
relative viability (LCLC-97TM1; first compound 2.53 µM): 0.223
